Data as given in PMC7587356, “High-Throughput Screening for Inhibitors of the SARS-CoV-2 Protease Using a FRET-Biosensor” (Molecules, 2020).
Structures can show the parent of a compound that is named as a salt. Where two headings read alike, the source gives them in different places.

Biological target: SARS-CoV-2 3CLpro (Severe acute respiratory syndrome coronavirus 2, UniProt P0DTD1)
Experiment: biochemical
Type: biochemical
Parameters: Replicate_1 / Replicate_2 / mean / mean (LOPAC_screen_w_protease): unit not given here
Conditions: for inhibition at 5 µM: 4 h; for mean (LOPAC screen with protease) / Replicate_1 (LOPAC screen with protease) / Replicate_2 (LOPAC screen with protease): primary screen at 5 µM
[1] = LOPAC1280 primary screen with protease, 5 µM compound, replicate 1, read-out: Replicate_1 (LOPAC_screen_w_protease)
[2] = LOPAC1280 primary screen with protease, 5 µM compound, replicate 2, read-out: Replicate_2 (LOPAC_screen_w_protease)
[3] = LOPAC1280 primary screen with protease, 5 µM compound, mean of two replicates
[4] = LOPAC1280 primary screen with protease, 5 µM compound, mean of the two replicates
[5] = LOPAC1280 primary screen with protease, 5 µM compound, replicate 1
[6] = LOPAC1280 primary screen with protease, 5 µM compound, replicate 2
[7] = sheet LOPAC_screen_w_protease, mean of two replicates
[8] = sheet LOPAC_screen_w_protease, replicate 1
[9] = sheet LOPAC_screen_w_protease, replicate 2
[10] = read-out: Replicate_1 (LOPAC screen with protease)
[11] = read-out: Replicate_2 (LOPAC screen with protease)
[12] = read-out: mean (LOPAC screen with protease)
[13] = sheet LOPAC_screen_w_protease, primary screen with protease, mean of two replicates, read-out: mean
[14] = sheet LOPAC_screen_w_protease, primary screen with protease, replicate 1, read-out: Replicate_1
[15] = sheet LOPAC_screen_w_protease, primary screen with protease, replicate 2, read-out: Replicate_2
[16] = sheet LOPAC_screen_w_protease, primary screen with protease, compound at 5 µM, mean of two replicates
[17] = sheet LOPAC_screen_w_protease, primary screen with protease, compound at 5 µM, replicate 1
[18] = sheet LOPAC_screen_w_protease, primary screen with protease, compound at 5 µM, replicate 2
[19] = sheet LOPAC_screen_w_protease, LOPAC1280 at 5 µM, mean of two replicates
[20] = sheet LOPAC_screen_w_protease, LOPAC1280 at 5 µM, replicate 1
[21] = sheet LOPAC_screen_w_protease, LOPAC1280 at 5 µM, replicate 2
[22] = sheet LOPAC_screen_w_protease, primary screen with protease, 5 µM, mean of two replicates
[23] = sheet LOPAC_screen_w_protease, primary screen with protease, 5 µM, replicate 1
[24] = sheet LOPAC_screen_w_protease, primary screen with protease, 5 µM, replicate 2
[25] = sheet LOPAC_screen_w_protease, LOPAC1280 primary screen at 5 µM, with protease, mean of the two replicates
[26] = sheet LOPAC_screen_w_protease, LOPAC1280 primary screen at 5 µM, with protease, replicate 1
[27] = sheet LOPAC_screen_w_protease, LOPAC1280 primary screen at 5 µM, with protease, replicate 2
[28] = sheet LOPAC_screen_w_protease, primary screen with protease, mean of two replicates
[29] = sheet LOPAC_screen_w_protease, primary screen with protease, replicate 1
[30] = sheet LOPAC_screen_w_protease, primary screen with protease, replicate 2
[31] = read-out: Replicate_1 (LOPAC_screen_w_protease)
[32] = read-out: Replicate_2 (LOPAC_screen_w_protease)

For `Cc1cc(C)c(NC(=O)C[C@H](CC(=O)O)c2cccc3ccccc23)c(C(=O)N2CCC3(CCCC3)CC2)c1` [CR 2945], the inhibition at 5 µM [1] was 3.19%, the inhibition at 5 µM [2] was 0.22% and the “mean (LOPAC_screen_w_protease)” value [3] was 1.703.
In the case of `CCCCCCCCCCCCCCCCCC(=O)OC(CC(=O)O)C[N+](C)(C)C.[Cl-]` (racemic) [DL-Stearoylcarnitine chloride], the “mean (LOPAC_screen_w_protease)” value [4] was 1.7681, the “Replicate_1 (LOPAC_screen_w_protease)” value [5] was 3.299 and the “Replicate_2 (LOPAC_screen_w_protease)” value [6] was 0.2369.
With `CCCc1c(OCCCOc2ccc(OCC(=O)O)cc2)ccc(C(C)=O)c1O` [L-165,041] the “mean (LOPAC screen with protease)” value [7] was 13.6599, the “Replicate_1 (LOPAC screen with protease)” value [8] was 14.4944 and the “Replicate_2 (LOPAC screen with protease)” value [9] was 12.8255.
With `C=C[C@@]1(C)CC(=O)[C@]2(O)[C@@]3(C)[C@@H](O)CCC(C)(C)[C@@H]3[C@H](O)[C@H](OC(C)=O)[C@@]2(C)O1` [Forskolin] the inhibition at 5 µM (sheet LOPAC_screen_w_protease, LOPAC1280 at 5 µM, mean of two replicates, read-out: mean) was 1.29%, the inhibition at 5 µM (sheet LOPAC_screen_w_protease, LOPAC1280 at 5 µM, replicate 1, read-out: Replicate_1) was 1.85% and the inhibition at 5 µM (sheet LOPAC_screen_w_protease, LOPAC1280 at 5 µM, replicate 2, read-out: Replicate_2) was 0.734%.
`NCCc1ccc(O)c(O)c1` [Dopamine hydrochloride] showed an inhibition at 5 µM [10] of 16.2%, an inhibition at 5 µM [11] of 14.6% and an inhibition at 5 µM [12] of 15.4%.
With `N[C@H](C(=O)O)[C@H]1C[C@@H]1C(=O)O` the Replicate_1 was 1.266, the Replicate_2 was 1.079 and the mean was 1.172.
With `CC(N)C(O)c1ccc(O)c(O)c1` (single isomer, unassigned; (-)) [(-)-alpha-Methylnorepinephrine] the “mean (LOPAC screen with protease)” value [7] was 8.627, the “Replicate_1 (LOPAC screen with protease)” value [8] was 8.881 and the “Replicate_2 (LOPAC screen with protease)” value [9] was 8.372.
`CSc1ccc(C(=O)c2[nH]c(=O)[nH]c2C)cc1` [Enoximone] showed an inhibition at 5 µM [10] of 7.98%, an inhibition at 5 µM [11] of 10% and an inhibition at 5 µM [12] of 9.01%.
For `CN(C(=O)CCCOc1ccc2[nH]c(=O)ccc2c1)C1CCCCC1` [Cilostamide], the inhibition at 5 µM [13] was 2.23%, the inhibition at 5 µM [14] was 1.11% and the inhibition at 5 µM [15] was 3.35%.
`Cc1ccccc1/C=C/C1=NCCN1` [Metrazoline oxalate] was tested, and the inhibition at 5 µM [1] was 2.83%, the inhibition at 5 µM [2] was 0.879% and the “mean (LOPAC_screen_w_protease)” value [4] was 1.853.
For `CN(C(=O)Cc1ccc(Cl)c(Cl)c1)C(CN1CCCC1)c1cccc(OCC(=O)O)c1.Cl` (stereo not drawn) [ICI 204,448 hydrochloride], the “mean (LOPAC_screen_w_protease)” value [4] was 1.925, the “Replicate_1 (LOPAC_screen_w_protease)” value [5] was 3.897 and the “Replicate_2 (LOPAC_screen_w_protease)” value [6] was -0.04714.
In the case of `COc1ccccc1N1CCN(CCN(C(=O)c2ccc(I)cc2)c2ccccn2)CC1.Cl` [p-MPPI hydrochloride], the mean [16] was 3.1199, the Replicate_1 [17] was 5.19 and the Replicate_2 [18] was 1.05.
Molecule `CCOC(=O)c1ncn2c1[C@@H]1CCCN1C(=O)c1cc(OC)ccc1-2` [L-655,708] has a mean [19] of 1.109, a Replicate_1 [20] of 1.0635 and a Replicate_2 [21] of 1.155.
`O=C(O)C1CCNCC1` [Isonipecotic acid] was tested, and the inhibition at 5 µM [1] was 4.55%, the inhibition at 5 µM [2] was -0.611% and the “mean (LOPAC_screen_w_protease)” value [4] was 1.97.
Work on `CNC(=O)c1cc2c(cn1)[nH]c1ccccc12` [N-Methyl-beta-carboline-3-carboxamide] yielded a mean [19] of 1.084, a Replicate_1 [20] of 1.698 and a Replicate_2 [21] of 0.4701.
With `O=C1CCc2cc(OCCCCc3nnnn3C3CCCCC3)ccc2N1` [Cilostazol] the inhibition at 5 µM [13] was 2.16%, the inhibition at 5 µM [14] was 1.9% and the inhibition at 5 µM [15] was 2.42%.
With `NC(C(=O)O)C(O)C(=O)O` (racemic) [DL-threo-beta-hydroxyaspartic acid] the “mean (LOPAC_screen_w_protease)” value [4] was 2.095, the “Replicate_1 (LOPAC_screen_w_protease)” value [5] was 2.385 and the “Replicate_2 (LOPAC_screen_w_protease)” value [6] was 1.804.
`C=C(C)[C@H]1CC=C(C(=O)O)CC1` [(-)-Perillic acid] was tested, and the mean [22] was -0.8057, the Replicate_1 [23] was 1.127 and the Replicate_2 [24] was -2.738.
For `COc1cc2c(CCNC(C)=O)c[nH]c2cc1Cl` [6-Chloromelatonin], the “mean (LOPAC_screen_w_protease)” value [3] was 1.65, the “Replicate_1 (LOPAC_screen_w_protease)” value [5] was 0.5069 and the “Replicate_2 (LOPAC_screen_w_protease)” value [6] was 2.794.
With `O=C(OCCN1CCOCC1)C1(c2ccccc2)CCCCC1` [PRE-084] the mean (sheet LOPAC_screen_w_protease, primary screen of LOPAC1280 at 5 µM with protease, mean of the two replicates) was 3.777, the Replicate_1 (sheet LOPAC_screen_w_protease, primary screen of LOPAC1280 at 5 µM with protease, replicate 1) was 2.6752 and the Replicate_2 (sheet LOPAC_screen_w_protease, primary screen of LOPAC1280 at 5 µM with protease, replicate 2) was 4.879.
For `C[C@H](Cc1ccccc1)Nc1ncnc2c1ncn2[C@@H]1O[C@H](CO)[C@@H](O)[C@H]1O` [R(-)-N6-(2-Phenylisopropyl)adenosine], the mean [25] was 0.4967, the Replicate_1 [26] was 2.165 and the Replicate_2 [27] was -1.171.
Molecule `Nc1nc(N)c2nc(-c3ccccc3)c(N)nc2n1` [Triamterene] has an inhibition at 5 µM (sheet LOPAC_screen_w_protease, primary screen with protease, 5 µM, mean of two replicates, read-out: mean) of -0.222%, an inhibition at 5 µM (sheet LOPAC_screen_w_protease, primary screen with protease, 5 µM, replicate 1, read-out: Replicate_1) of 2.19% and an inhibition at 5 µM (sheet LOPAC_screen_w_protease, primary screen with protease, 5 µM, replicate 2, read-out: Replicate_2) of -2.63%.
Work on `C[N+]1(C)CCC(OC(=O)C(c2ccccc2)c2ccccc2)CC1.[I-]` [4-DAMP methiodide] yielded a mean [28] of 2.136, a Replicate_1 [29] of 2.4758 and a Replicate_2 [30] of 1.796.
With `N.N.N.N.N.N.N.N.N.N.N.N.N.N.[Cl-].[Cl-].[Cl-].[Cl-].[Cl-].[Cl-].[O-2].[O-2].[Ru+3].[Ru+3].[Ru+4]` [Ruthenium red] the “mean (LOPAC_screen_w_protease)” value [4] was 1.824, the “Replicate_1 (LOPAC_screen_w_protease)” value [5] was 2.607 and the “Replicate_2 (LOPAC_screen_w_protease)” value [6] was 1.042.
With `C=C(C)[C@H]1CN[C@H](C(=O)O)[C@H]1CC(=O)O` [Kainic acid] the “mean (LOPAC_screen_w_protease)” value was 1.974, the inhibition at 5 µM [31] was 1.88% and the inhibition at 5 µM [32] was 2.07%.
Molecule `CCCN(CC1CC1)c1nc(C)nc(Nc2c(Cl)cc(Cl)cc2Cl)c1Cl` [NBI 27914] has a mean [28] of 2.264, a Replicate_1 [29] of 4.203 and a Replicate_2 [30] of 0.3255.
Work on `NCCNC(=O)Cc1ccc(NC(=O)Cc2ccc(Nc3ncnc4c3ncn4[C@@H]3O[C@H](CO)[C@@H](O)[C@H]3O)cc2)cc1` [Adenosine amine congener] yielded a mean [16] of 2.686, a Replicate_1 [17] of 3.268 and a Replicate_2 [18] of 2.1037.
With `Clc1cccc(Cl)c1N=C1NCCN1` [Clonidine hydrochloride] the “mean (LOPAC_screen_w_protease)” value was 1.822, the inhibition at 5 µM [31] was 1.42% and the inhibition at 5 µM [32] was 2.22%.
`CCC(=O)c1ccc2c(c1)N(CCCN(C)C)c1ccccc1S2` [Propionylpromazine hydrochloride] was tested, and the inhibition at 5 µM [1] was 2.15%, the inhibition at 5 µM [2] was 0.621% and the “mean (LOPAC_screen_w_protease)” value [3] was 1.386.
In the case of `Nc1ncnc2c1ncn2[C@@H]1O[C@H](C(=O)NC2CC2)[C@@H](O)[C@H]1O` [5'-(N-Cyclopropyl)carboxamidoadenosine], the “mean (LOPAC_screen_w_protease)” value [3] was 1.624, the “Replicate_1 (LOPAC_screen_w_protease)” value [5] was 1.713 and the “Replicate_2 (LOPAC_screen_w_protease)” value [6] was 1.536.
Molecule Oligomycin A has a mean (sheet LOPAC_screen_w_protease, LOPAC1280 primary screen with protease, 5 µM compound, mean of the two replicates) of 6.143, a Replicate_1 (sheet LOPAC_screen_w_protease, LOPAC1280 primary screen with protease, 5 µM compound, replicate 1) of 3.7549 and a Replicate_2 (sheet LOPAC_screen_w_protease, LOPAC1280 primary screen with protease, 5 µM compound, replicate 2) of 8.531.
Ceramide showed a mean [16] of 2.999, a Replicate_1 [17] of 2.718 and a Replicate_2 [18] of 3.28.
Work on `CC[C@]1(O)C[C@@H]2CN(CCc3c([nH]c4ccccc34)[C@@](C(=O)OC)(c3cc4c(cc3OC)N(C)[C@H]3[C@@](O)(C(=O)OC)[C@H](OC(C)=O)[C@]5(CC)C=CCN6CC[C@]43[C@@H]65)C2)C1.O=S(=O)(O)O` [Vinblastine sulfate salt] yielded a mean [22] of 0.3705, a Replicate_1 [23] of 2.018 and a Replicate_2 [24] of -1.277.
For `Cl.NC(N)=NCCNS(=O)(=O)c1cccc2cnccc12` [HA-1004 hydrochloride], the “mean (LOPAC_screen_w_protease)” value [3] was 1.6, the “Replicate_1 (LOPAC_screen_w_protease)” value [5] was 0.9796 and the “Replicate_2 (LOPAC_screen_w_protease)” value [6] was 2.221.
`CCCCCCCCCC[Si](C)(C)CCC(=O)NC(Cc1ccc(C)cc1)c1ccccc1` (stereo not drawn) [Sandoz 58-035] was tested, and the mean [25] was 0.7639, the Replicate_1 [26] was 1.25 and the Replicate_2 [27] was 0.2774.
